According to ChEMBL document CHEMBL3112514, “Insights into antioxidant activity of 1-adamantylthiopyridine analogs using multiple linear regression” (Eur J Med Chem, 2014):

Assays:
[1] = Antioxidant activity assessed as inhibition of photoreduction of nitro blue tetrazolium after 7 mins by SOD activity assay; type: functional; set-up: concentration or dose not given beside the values
[2] = system: Radical scavenging activity; assay: Antioxidant activity assessed as DPPH radical scavenging activity; type: functional; set-up: concentration or dose not given beside the values

| SMILES | inhibition [1] [%] | Activity [2] [%] |
| --- | --- | --- |
| Brc1cccnc1SC12CC3CC(CC(C3)C1)C2 | 17.2 | 21.1 |
| O=C(O)c1cccnc1SC12CC3CC(CC(C3)C1)C2 | 15.4 | 33.2 |
| CC(=O)N(C(C)=O)c1cccnc1SC12CC3CC(CC(C3)C1)C2 | – | 17.7 |
| Oc1ccc(SC23CC4CC(CC(C4)C2)C3)nc1 | 45.5 | 0.3 |
| CC(=O)Oc1cccnc1SC12CC3CC(CC(C3)C1)C2 | 16.8 | 7.03 |
| NC(=O)c1cccnc1SC12CC3CC(CC(C3)C1)C2 | 15.4 | 0.57 |
| CCOc1cccnc1SC12CC3CC(CC(C3)C1)C2 | 31.8 | 14.2 |
| Brc1cncc(SC23CC4CC(CC(C4)C2)C3)c1 | 53.3 | 17.1 |
| N#Cc1cccnc1SC12CC3CC(CC(C3)C1)C2 | 17.3 | 0.3 |
